Measurements reported in patent publication US20150031761A1, “USE OF 5-AMINOLEVULINIC ACID AND DERIVATIVES IN A SOLID FORM FOR PHOTODYNAMIC TREATMENT AND DIAGNOSIS” (Photocure ASA, priority 2007, published 2015).

Assay: Stress-study at 80° C. of HAL HCl with excipients, impurities by HPLC
Assay type: physicochemical
Design: key to level of impurity at relative retention time 0.8: **: An empty entry indicates no detectable levels
Details: 20 hours, relative to a pyrazine standard
Method: In order to get an indication of the stability of HAL in the presence of various excipients, a stress-study at 80° C. was performed. 100 mg HAL HCl+300 mg excipient (Poloxamer 188, Gelucire 44/14, Gelucire mixture (44/14:50/02=[…] w/w) and Miglyol 812 N) was mixed and the result after 20 hours was analysed by HPLC. The level of each impurity was calculated relative to a pyrazine standard.

level of impurity Pyrazine: 1.77%
level of impurity at relative retention time 0.8: **
level of impurity at relative retention time 0.88: 0.46%
level of impurity at relative retention time 1.37: 0.03%
level of impurity at relative retention time 1.91: 0.35%
level of impurity at relative retention time 2.06: 0.16%
SMILES: CCCCCCOC(=O)CCC(=O)CN.Cl [HAL- HCl, Hexyl 5-aminolevulinate hydrochloride]
